Results published in ChEMBL document CHEMBL5729575, “Alkynyl-substituted heterocyclic compound, preparation method therefor and medical use thereof” (2023).

Key:
[1] = target: Fibroblast growth factor receptor 3 (Homo sapiens, UniProt P22607); assay: FGFR3 Activity Inhibition Test: The reaction buffer contains the following components: 5-fold diluted enzymatic buffer/kinase 5x(Cisbio, Cat No. 62EZBFDD)(its main component is 50nM HEPES, pH 7.0), 5mM MgCl2 and 1 mM DTT, a […] which was purchased from Yiqiao Shenzhou Biotech Co. Ltd., a 0.3 ng/uL kinase solution diluted by the …
[2] = target: Fibroblast growth factor receptor 2 (Homo sapiens, UniProt P21802); assay: FGFR2 Activity Inhibition Test: The reaction buffer contains the following components: 5-fold diluted enzymatic buffer/kinase 5x(Cisbio, Cat No. 62EZBFDD)(its main component is 50nM HEPES, pH 7.0), 5mM MgCl2 and 1 mM DTT, a human recombinant FGFR2 catalytic domain protein (amino acid 400-821) which was purchased from Yiqiao Shenzhou Biotech Co. Ltd., a 0.45ng/uL kinase solution diluted by the …
Sequence of Fibroblast growth factor receptor 2 (P21802 whole entry, the tested form may be a part): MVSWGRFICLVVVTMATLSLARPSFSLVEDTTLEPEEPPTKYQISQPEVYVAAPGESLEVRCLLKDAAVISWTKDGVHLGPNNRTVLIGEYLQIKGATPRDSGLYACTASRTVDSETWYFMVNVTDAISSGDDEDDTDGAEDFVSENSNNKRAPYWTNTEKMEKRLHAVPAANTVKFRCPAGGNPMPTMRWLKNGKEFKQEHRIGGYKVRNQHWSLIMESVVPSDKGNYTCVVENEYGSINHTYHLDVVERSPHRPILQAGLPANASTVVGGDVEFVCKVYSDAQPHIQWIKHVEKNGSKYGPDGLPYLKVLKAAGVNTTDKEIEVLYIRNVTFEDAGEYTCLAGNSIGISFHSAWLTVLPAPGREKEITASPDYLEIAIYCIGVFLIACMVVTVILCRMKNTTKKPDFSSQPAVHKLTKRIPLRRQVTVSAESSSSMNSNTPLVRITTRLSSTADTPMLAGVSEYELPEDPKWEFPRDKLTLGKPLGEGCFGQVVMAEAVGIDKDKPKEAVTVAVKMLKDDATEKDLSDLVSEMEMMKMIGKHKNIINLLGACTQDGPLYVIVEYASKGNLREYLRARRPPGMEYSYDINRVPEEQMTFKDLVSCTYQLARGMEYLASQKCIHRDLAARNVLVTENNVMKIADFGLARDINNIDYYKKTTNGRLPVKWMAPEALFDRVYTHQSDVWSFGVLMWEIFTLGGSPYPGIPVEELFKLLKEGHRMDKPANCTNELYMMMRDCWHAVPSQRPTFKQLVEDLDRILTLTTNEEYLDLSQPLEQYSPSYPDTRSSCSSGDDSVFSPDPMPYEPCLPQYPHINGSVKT

Sequence of Fibroblast growth factor receptor 3 (P22607 whole entry, the tested form may be a part): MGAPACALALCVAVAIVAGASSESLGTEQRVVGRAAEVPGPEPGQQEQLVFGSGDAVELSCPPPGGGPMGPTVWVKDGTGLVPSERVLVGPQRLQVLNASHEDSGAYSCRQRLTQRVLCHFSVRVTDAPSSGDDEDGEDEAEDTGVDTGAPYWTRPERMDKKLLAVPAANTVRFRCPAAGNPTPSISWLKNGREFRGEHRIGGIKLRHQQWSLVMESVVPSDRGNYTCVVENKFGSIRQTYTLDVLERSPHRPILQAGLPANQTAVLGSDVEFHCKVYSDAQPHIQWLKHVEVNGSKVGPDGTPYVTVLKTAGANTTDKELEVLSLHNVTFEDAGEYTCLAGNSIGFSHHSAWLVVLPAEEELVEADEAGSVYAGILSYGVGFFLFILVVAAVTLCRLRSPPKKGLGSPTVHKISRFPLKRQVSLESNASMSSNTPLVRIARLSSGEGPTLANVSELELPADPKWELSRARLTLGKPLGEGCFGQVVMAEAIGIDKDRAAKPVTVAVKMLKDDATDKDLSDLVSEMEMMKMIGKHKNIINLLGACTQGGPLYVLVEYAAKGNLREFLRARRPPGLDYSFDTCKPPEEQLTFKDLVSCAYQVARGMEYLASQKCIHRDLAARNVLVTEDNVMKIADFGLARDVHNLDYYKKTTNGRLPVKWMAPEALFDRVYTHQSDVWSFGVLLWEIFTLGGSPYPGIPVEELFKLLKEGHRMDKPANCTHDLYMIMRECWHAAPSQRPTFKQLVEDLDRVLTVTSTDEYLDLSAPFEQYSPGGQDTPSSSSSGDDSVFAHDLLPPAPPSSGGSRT

IC50 [1]: < 10 nM
IC50 [2]: < 10 nM
SMILES: CC#CC(=O)N1CC[C@H](n2nc(C#Cc3cc(OC)cc(OC)c3)c(C(N)=O)c2N)C1
